Data set [1] relates to N-Cadherin. Kind of data set: Extractable N-Cadherin, denaturing gel, HS cells. The data set is classed as cell-based, human. The following applies: especially with both AEEA and TGFβ1. The source says: (§1) In the native gel, intensities of integrin bands are not changed in a parallel fashion to that in denaturing gels, which may be the result of intramolecular alterations.
(§2) […] In FIG. 6, the effect of AEEA on fibronectin, integrins αV and β5, and N-cadherin is examined, which have all been implicated in the development of HS. In a denaturing gel, TGFβ1 and AEEA exposure has a similar effect of increasing extractability of integrins and, to some extent, N-cadherin. […] Most interesting are interactions between AEEA and TGFβ1 with regard to HS cell expression of fibronectin, a critical molecule in cell adhesion, growth, migration, and differentiation, which is implicated in HS.

The subject of data set [2] is collagen type 1. Kind of data set: Collagen type 1 extractability, sequential denaturing ECM extraction (RIPA then urea), Western blot densitometry. In kind it is cell-based, human. The following applies: for increased extractability of collagen type 1 (by densitometry): 14 day exposure, HS fibroblasts, urea lysis buffer. The protocol:
Preparation of Decellularized Matrix Scaffold, or Extracellular Matrix (ECM): The methods for isolation and characterization of the matrix of skin cells (fibroblastic-type cells) derived from normal (N Fb) and those derived from hypertrophic scar (HS Fb), as well as an embryonic fibroblast (E Fb) as a further control for comparison by the present inventors; these basic methods can be followed in the characterization of mechanism(s) of HS. Briefly, fibroblast-like cells are cultured on 13 mm diameter Nunc™ Thermanox™ Coverslips (Catalog #174950) in 24-well cell culture plates in DMEM supplemented with 13% FCS, antibiotics, and 50 μg/ml of sodium ascorbate; cells are seeded at the number that cell density reaches 70% confluence in 24 hours. AEEA treatments start before the formation of ECM, at the second day post passage. Sodium ascorbate, which is the crucial cofactor of lysyl oxidase (LOX), lysyl hydroxylase, and proline hydroxylase (to be assayed), is added daily, 5 days/week, to stimulate ECM assembly. AEEA is changed with culture media (every 3 days). […] The next day, water is replaced with PBS, and the preparation is ready for AFM, or other biochemical, molecular or proteomic studies as described below. […]
Total collagen content of the matrix can be determined by established extraction procedures and a dye-binding method based on the specific binding of Sirius Red dye to the [Gly-X-Y]n helical structure of collagen types I to XIV. […] Elastin can be determined in separate samples as soluble tropoelastin utilizing a dye binding assay (Accurate Chemical Corp., Westbury, N.Y.) and as insoluble elastin by repeated salt and alkali extraction as previously described. The effects of AEEA on collagen and other extra-cellular protein abundances can be further evaluated by using the normal human neonatal primary dermal fibroblast (ATCC® PCS-201-010™), and normal skin fibroblasts (NS Fb), and also hypertrophic scar fibroblasts (HS Fb) derived from skin of the other clinically evident HS developed by patients. […]

In data set [3] the test system is triple helical collagen. The data set is described as follows: Native (non-denaturing) gel of collagen tertiary structure (triple helix) in HS cells. The data set is classed as cell-based, human. To be noted: for TGFβ1 effect: increase in triple helical collagen: TGFβ1 exposure last 4 days. The procedure: Native lysis buffer uses digitonin; see text. […] TGFβ1 treatment (4 days) increases mature (triple helical) structure, while changing monomer ratio, an effect that is mimicked by AEEA-alone at 25 μM but not at 50 μM (see text and FIG. 7 re: fibronectin). TGFβ1 effect appears attenuated by 50 μM AEEA.
PGK1/2 is fraction marker. […] These collagen aberrations were then examined with non-denaturing, or “native” gels (FIG. 5). “Native” or “non-denaturing” gel electrophoresis is run in non-denaturing conditions, i.e., in the absence of any charged denaturing agents, such as SDS; and reducing agent. Native gel allows for the protein's natural structure to be maintained. Thus, the physical size of the folded or assembled complex affects mobility. In SDS-PAGE, the electrophoretic mobility of proteins depends primarily on their molecular mass alone; in native gel the mobility also depends on both the protein's charge and its hydrodynamic size. The native lysis buffer used contains: 50 mM Tris-HCl, pH 7.5; 150 mM NaCl and 1% Digitonin.
However this finding is not present at 50 μM AEEA. Following 25 μM AEEA alone, a 6-fold increase was seen. The triple helical structure in the presence of both AEEA and TGFβ1 appeared relatively diminished.
Total collagen content of the matrix can be determined by established extraction procedures and a dye-binding method based on the specific binding of Sirius Red dye to the [Gly-X-Y]n helical structure of collagen types I to XIV. The method has virtually an exact correlation with analytic methods for hydroxyproline content. Elastin can be determined in separate samples as soluble tropoelastin utilizing a dye binding assay (Accurate Chemical Corp., Westbury, N.Y.) and as insoluble elastin by repeated salt and alkali extraction as previously described. The effects of AEEA on collagen and other extra-cellular protein abundances can be further evaluated by using the normal human neonatal primary dermal fibroblast (ATCC® PCS-201-010™), and normal skin fibroblasts (NS Fb), and also hypertrophic scar fibroblasts (HS Fb) derived from skin of the other clinically evident HS developed by patients. Time course and dose response studies can also be used to test the effects of AEEA on stability of those proteins, by Western blotting, to see if it is degraded more quickly in the AEEA treated cells. For Western Blot, cultured N Fb and FS Fb grown and treated with AEEA as described above can be gently washed with 4° C. pre-chilled PBS. The plate is then placed on the surface of a −20° C. ice block. […] The protein concentrations of the samples extracted with RIPA measured by with the DC™ protein assay kit (Bio-Rad Laboratories, Inc. USA), while the protein of remaining extracts is quantitated with the BCA protein assay (Pierce). […]

The subject of data set [4] is Integrins αV and β5. The data set is described as follows: Integrins αV and β5 extractability, denaturing gel, HS cells. In kind it is cell-based, human.
Excerpt: as §1, §2

Data set [5] can be described thus: Rat model of 30% scald burn, localized injections, adverse effect on skin or burn wound healing. In kind it is in vivo. The protocol:
To assess the possibility of an adverse AEEA effect on skin or burn wound healing, a rat model of 30% scald burn was utilized. AEEA was used to treat burns (or unburned skin as sham) by localized multiple injections (5 of 0.1 ml) of AEEA at 5.0 and 50.0 mM concentrations, which are 100- or 1,000-fold of the effective concentration in our cell culture, respectively, but is only 10% concentration of the rat DAA experiments by gavage.

Data set [6] deals with skin fibroblasts. Kind of data set: Scanning EM of interstitial matrix (skin fibroblasts removed). In kind it is cell-based, human. The following applies: AEEA 5, 10 mM, cells removed.
Procedure: Briefly, fibroblast-like cells are cultured on 13 mm diameter Nunc™ Thermanox™ Coverslips (Catalog #174950) in 24-well cell culture plates in DMEM supplemented with 13% FCS, antibiotics, and 50 μg/ml of sodium ascorbate; cells are seeded at the number that cell density reaches 70% confluence in 24 hours. AEEA treatments start before the formation of ECM, at the second day post passage. Sodium ascorbate, which is the crucial cofactor of lysyl oxidase (LOX), lysyl hydroxylase, and proline hydroxylase (to be assayed), is added daily, 5 days/week, to stimulate ECM assembly. AEEA is changed with culture media (every 3 days). […] After 14 days of culture, the resulting tissue sheets are gently rinsed twice with PBS, and then incubated in sterile deionized water for 20 minutes at 4° C. to lyse the cells with hypotonic condition (decellularization). Matrix is rinsed free of cell debris, and ECM samples are kept overnight at 4° C.
For data set [7] the following is noted: in utero exposure; cited from earlier work.
Data set [8] deals with α-SMA. The data set is described as follows: α-SMA Western blot in normal (N) and HS skin fibroblasts. The data set is classed as cell-based, human.
Excerpt: GAPDH is loading control. […] GAPDH is loading control. […] The effects of AEEA on collagen and other extra-cellular protein abundances can be further evaluated by using the normal human neonatal primary dermal fibroblast (ATCC® PCS-201-010™), and normal skin fibroblasts (NS Fb), and also hypertrophic scar fibroblasts (HS Fb) derived from skin of the other clinically evident HS developed by patients. Time course and dose response studies can also be used to test the effects of AEEA on stability of those proteins, by Western blotting, to see if it is degraded more quickly in the AEEA treated cells. For Western Blot, cultured N Fb and FS Fb grown and treated with AEEA as described above can be gently washed with 4° C. pre-chilled PBS. The plate is then placed on the surface of a −20° C. ice block. […] Therefore, samples are serially extracted with RIPA buffer, urea extraction buffer and then 0.5 M acetic acid; or, with native sample buffer, as described above. […] The protein concentrations of the samples extracted with RIPA measured by with the DC™ protein assay kit (Bio-Rad Laboratories, Inc. USA), while the protein of remaining extracts is quantitated with the BCA protein assay (Pierce). […] Signals are recorded on film (CL-XPousure™ film, Thermo Scientific) by using ECL™ Western blot detection reagents (Amersham Biosciences, RPN2209).
The subject of data set [9] is fibronectin. The data set is described as follows: Fibronectin extractability, denaturing gel following digitonin, HS cells. The data set is classed as cell-based, human. The protocol:
Increased extractability of fibronectin induced by TGFβ1, with little effect of AEEA at 25 or 50 μM. However, the TGFβ1 enhancement of fibronectin is blocked by 50 μM AEEA (last two lanes). Fibronectin, a critical cell adhesion molecule, is implicated in HS. […] See text for densitometric analysis, FIGS. 3-7.

This is an account of results in patent US10285956B2, “N-(2-aminoethyl) ethanolamine (AEEA) and analogs to treat hypertrophic scarring and liposomal topical delivery” (BOARD OF REGENTS, THE UNIVERSITY OF TEXAS SYSTEM, priority 2016, dated 2019).

Regarding `NCCNCCO` [AEEA, N-(2-aminoethyl) ethanolamine], the “Extractable N-Cadherin” value in data set [1] is listed as “increased”. Further, the “increased extractability of collagen type 1 (by densitometry)” value came to 2 fold in data set [2] (25 μM AEEA) and 5 fold in data set [2] (100 μM AEEA). Moreover, in data set [2] (human burn wound fibroblasts (from HS) cultured in 50 μM compound), the “increase of Collagen I extractability, densitometrically” value is 3 fold. Also, the “increase in triple helical collagen” value in [3] (25 μM AEEA alone, 7 days, native gel) is 6 fold. The “TGFβ1 effect on triple helical collagen in presence of AEEA” value in data set [3] (50 μM AEEA plus TGFβ1, 7 days) is recorded as “not present”. The “effect on Integrins αV and β5 (extractability)” value in [4] is reported as “increasing”. Moreover, the “localized skin or systemic effects” value in data set [5] (5 injections of 0.1 ml at 5.0 and 50.0 mM, burns or unburned skin) is “no untoward localized skin or systemic effects”. In addition, the “histology, AEEA sites vs vehicle (PBS buffer) sites” value in [5] (normal unburned skin or full thickness burns, 7 days post-burn) is “no qualitative or quantitative differences”. The “appearance of interstitial matrix by SEM” value in data set [6] was “marked irregularities”. For the same molecule, the “finding in rat pups born to mother rats exposed in utero” value in data set [7] was “dramatic dissecting aortic aneurysms”. Besides, the α-SMA expression result in [8] (1-10 mM AEEA, 14 days, normal (N) and HS skin fibroblasts) is “loss of α-SMA”; in data set [8] (low (μM) AEEA doses, 14 day exposure, HS fibroblasts), “not down-regulated”. The “TGFβ1 enhancement of fibronectin in presence of AEEA” value in data set [9] (50 μM AEEA plus TGFβ1, HS cells) was “blocked”. Also, in data set [9] (AEEA at 25 or 50 μM alone, HS cells), the “effect on extractability of fibronectin” value was “little effect”.
As to “TGFβ1: transforming growth factor-β1, regulator of scarring used to treat HS cells [reference compound]”, in [1], the “Extractable N-Cadherin” value is “increased”. In addition, the “TGFβ1 effect: increase in triple helical collagen” value was 10 fold in [3] (0.0 (control) AEEA, 7 days) and 16 fold in data set [3] (with 25 μM AEEA, 7 days). For the same molecule, in data set [4], the “effect on Integrins αV and β5 (extractability)” value is listed as “increasing”. Further, the “increased extractability of fibronectin” value in data set [9] (TGFβ1 alone, denaturing gel, HS cells) turned out to be 5 fold.
